Measurements taken from article PMC10166855, “Tau activation of microglial cGAS–IFN reduces MEF2C-mediated cognitive resilience” (Nature neuroscience, 2023).

Target: human cGAS (cyclic GMP–AMP synthase) (Homo sapiens, UniProt Q8N884)
Test: cell-free cGAS activity assay, ATP depletion by Kinase-Glo luminescence
Format: biochemical
From the text: cell-free cGAS activity assay, ATP depletion by Kinase-Glo luminescence on human cGAS (cyclic GMP–AMP synthase) | Dose-dependent inhibition of cGAS activity (as measured in a) in response to HT-DNA.

Sequence of human cGAS (cyclic GMP–AMP synthase) (Q8N884 whole entry): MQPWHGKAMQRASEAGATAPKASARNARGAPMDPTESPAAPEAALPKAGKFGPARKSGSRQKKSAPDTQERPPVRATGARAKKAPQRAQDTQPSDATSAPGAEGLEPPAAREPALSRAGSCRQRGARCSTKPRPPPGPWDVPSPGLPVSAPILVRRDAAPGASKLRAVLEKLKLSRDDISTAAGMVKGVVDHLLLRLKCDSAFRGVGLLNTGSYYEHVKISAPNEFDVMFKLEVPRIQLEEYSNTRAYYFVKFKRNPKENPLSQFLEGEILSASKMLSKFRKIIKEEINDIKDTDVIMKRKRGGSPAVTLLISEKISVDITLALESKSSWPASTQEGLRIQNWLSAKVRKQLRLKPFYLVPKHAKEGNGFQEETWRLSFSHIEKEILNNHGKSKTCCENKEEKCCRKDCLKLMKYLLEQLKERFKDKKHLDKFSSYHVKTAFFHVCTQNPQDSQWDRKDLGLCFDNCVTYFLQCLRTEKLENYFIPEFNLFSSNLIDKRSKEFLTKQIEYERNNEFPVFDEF

IC50: 0.0812 µM
Substance: TDI-8246
